# Test results as given in patent publication US20240100038A1, “USE OF THE AXL INHIBITOR SLC-391 AS ANTIVIRAL THERAPEUTIC AGENT” (SignalChem Lifesciences Corporation, priority 2021, published 2024).
# Like-named read-outs stand apart in the source and are kept apart here.
# How the values were obtained:
# SARS-CoV-2 [1] = settings: cited from earlier work
# Ebola virus = settings: animal models (Dowall 2016); cited from earlier work
# ZEB1 = settings: Stewart 2020; cited from earlier work
# AXL [2] = settings: cultured cell assays; cited from earlier work
# MER [3] = settings: cultured cell assays; cited from earlier work
# [4] = test system: virus infection of wild type bone marrow-derived dendritic cells; settings: wild type bone marrow-derived dendritic cells (Bhattacharyya 2013); cited from earlier work
# 4T1 = test: Cellular proliferation, 4T1; type: cell-based; settings: Mus musculus
# NUAK1 = NUAK1 (Homo sapiens, UniProt O60285); test: Radiometric phosphotransferase assay, panel of 320 protein kinases; type: biochemical
# Excerpt: (§1) The selectivity of SLC-391 was further evaluated against a panel of 320 protein kinases from the human kinome using a radiometric phosphotransferase assay.
# Aurora C = Aurora C (Homo sapiens, UniProt Q9UQB9); test: as above; type: biochemical
# Excerpt: as §1
# c-MET = c-MET (Homo sapiens, UniProt P08581); test: as above; type: biochemical
# Excerpt: as §1
# ALK1 = ALK1 (Homo sapiens, UniProt P37023); test: as above; type: biochemical
# Excerpt: as §1
# EPHA6 = EPHA6 (Homo sapiens, UniProt Q9UF33); test: as above; type: biochemical
# Excerpt: as §1
# ROS1 = ROS1 (Homo sapiens, UniProt P08922); test: as above; type: biochemical
# Excerpt: as §1
# RET = RET (Homo sapiens, UniProt P07949); test: as above; type: biochemical
# Excerpt: as §1
# MER [5] = target: T1, MER (Homo sapiens, UniProt Q12866); test: MER kinase inhibition; type: biochemical
# Excerpt: as §1
# [6] = test system: Salmonella tester strain TA98; test: Ames screening test, TA98; type: cell-based; settings: TA98, with and without liver S9 metabolic activation
# Excerpt: (§2) In genotoxicity screening studies, SLC-391 was negative in Salmonella tester strains TA98 and TA100 (Ames screening test) with and without liver S9 metabolic activation.
# [7] = in vivo, po
# in vivo = settings: both, Sprague-Dawley, rat
# SARS-CoV-2 [8] = type: cell-based; settings: Vero E6 cells
# [9] = test system: human influenza virus (FluAPR834); test: microbe, parasite or virus in culture; settings: unidentified influenza virus, RPMI-2650, in Homo sapiens, 96 h, read-out: EC50 (inhibit CPE by 50%)
# [10] = test system: Salmonella tester strain TA100; test: Ames screening test, TA100; type: cell-based; settings: TA100, with and without liver S9 metabolic activation
# Excerpt: as §2
# [11] = test system: human influenza virus (FluAPR834); settings: Flu A, RPMI2650 cells
# [12] = test system: Gas6-induced phosphorylation of Akt; test: Inhibition of Gas6-induced phosphorylation of Akt in A549; type: cell-based; settings: human NSCLC cell line A549
# hERG = hERG (Homo sapiens, UniProt Q12809); test: Standard hERG assay; type: biochemical
# A549 cell invasion = test: Cell invasion; type: cell-based; settings: Homo sapiens
# TYRO3 = TYRO3 (Homo sapiens, UniProt Q06418); test: TYRO3 kinase inhibition; type: biochemical
# Excerpt: as §1
# in vitro [13] = settings: human
# K562 = test: Cellular proliferation, K562; type: cell-based; settings: Homo sapiens
# [14] = 28-day oral gavage GLP toxicology study in Beagle dogs
# [15] = Phase I study in subjects with solid tumors (SLC-391-101); settings: clinical drug product, oral
# A549 cells = test: Anchorage-independent cell proliferation; type: cell-based, human; settings: at 1 μM in A549 cells
# [16] = 28-day oral gavage GLP toxicology study in Sprague-Dawley rats
# influenza virus (Flu A) = type: cell-based; settings: for Fold of virus reduction: compared with virus control
# phosphorylated Akt = test: Phosphorylated Akt in tumor xenograft samples; type: in vivo; settings: oral administration
# Excerpt: (§3) Significant in vivo pharmacology studies for SLC-391 have been completed in support of its oncology indication. The bioavailability of SLC-391 in vivo when administered orally (PO) (twice-daily [BID] and once-daily [QD]) were studied.
# in vitro [17] = settings: human; remark: listed apart in the source
# [18] = Flowscreen genotoxicity assay; type: cell-based
# AXL [19] = target: T2, AXL (Homo sapiens, UniProt P30530); test: In vitro BaF3 cell assay, panel of 93 receptor tyrosine kinases; type: cell-based; set-up: expressed in transfected cells; host or cells: BaF3; settings: at 100 nM
# AXL [20] = target: T2, AXL; test: AXL kinase inhibition; type: biochemical
# Excerpt: as §1
# A549 = test: Cell migration; type: cell-based, human; settings: at 1 μM
# VEGFR1 = target: T3, VEGFR1 (Homo sapiens, UniProt P17948); test: In vitro BaF3 cell assay, panel of 93 receptor tyrosine kinases; type: cell-based; settings: at 100 nM
# T3 construct: expressed in transfected cells; host or cells: BaF3
# [21] = test system: SARS-CoV-2 spike protein binding to ACE2; type: cell-based, SARS-CoV-2 / human; settings: 1 μM, CHO-hACE2 cells, luciferase
# FGFR3 = target: T4, FGFR3 (Homo sapiens, UniProt P22607); test: In vitro BaF3 cell assay, panel of 93 receptor tyrosine kinases; type: cell-based; settings: at 100 nM
# T4 construct: expressed in transfected cells; host or cells: BaF3
# [22] = In vivo rat micronucleus assay; settings: 70 mg/kg/day (highest dose)
# tumor growth = test: In vivo tumor growth inhibition, oral administration
# Excerpt: as §3
# MER [23] = target: T1, MER; test: In vitro BaF3 cell assay, panel of 93 receptor tyrosine kinases; type: cell-based; set-up: expressed in transfected cells; host or cells: BaF3; settings: at 100 nM
# [24] = 28-day oral gavage, Beagle dogs
# T2 sequence (P30530 26-894): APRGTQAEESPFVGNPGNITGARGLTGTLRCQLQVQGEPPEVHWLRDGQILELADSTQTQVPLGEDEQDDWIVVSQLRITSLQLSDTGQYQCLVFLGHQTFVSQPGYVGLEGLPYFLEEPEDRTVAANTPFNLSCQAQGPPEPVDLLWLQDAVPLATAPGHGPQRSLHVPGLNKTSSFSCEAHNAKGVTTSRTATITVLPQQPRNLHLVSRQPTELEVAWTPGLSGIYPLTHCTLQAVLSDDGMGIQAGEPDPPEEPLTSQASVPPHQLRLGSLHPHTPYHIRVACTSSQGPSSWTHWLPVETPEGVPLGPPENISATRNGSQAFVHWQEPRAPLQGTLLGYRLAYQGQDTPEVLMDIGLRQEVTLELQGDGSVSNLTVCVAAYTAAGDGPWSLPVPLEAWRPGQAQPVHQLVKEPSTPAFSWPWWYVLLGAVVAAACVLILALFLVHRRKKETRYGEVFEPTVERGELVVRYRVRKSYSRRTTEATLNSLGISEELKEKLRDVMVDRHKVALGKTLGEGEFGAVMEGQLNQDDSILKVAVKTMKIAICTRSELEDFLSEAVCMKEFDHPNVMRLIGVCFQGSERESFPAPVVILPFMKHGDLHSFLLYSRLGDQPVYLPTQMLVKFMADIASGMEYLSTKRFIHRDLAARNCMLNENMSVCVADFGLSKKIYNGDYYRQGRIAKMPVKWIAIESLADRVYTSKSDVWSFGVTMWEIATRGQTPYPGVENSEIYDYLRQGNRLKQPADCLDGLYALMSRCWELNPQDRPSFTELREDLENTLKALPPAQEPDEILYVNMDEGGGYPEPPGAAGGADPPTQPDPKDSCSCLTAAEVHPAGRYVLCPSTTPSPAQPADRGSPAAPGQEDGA
# T1 sequence (Q12866 21-999): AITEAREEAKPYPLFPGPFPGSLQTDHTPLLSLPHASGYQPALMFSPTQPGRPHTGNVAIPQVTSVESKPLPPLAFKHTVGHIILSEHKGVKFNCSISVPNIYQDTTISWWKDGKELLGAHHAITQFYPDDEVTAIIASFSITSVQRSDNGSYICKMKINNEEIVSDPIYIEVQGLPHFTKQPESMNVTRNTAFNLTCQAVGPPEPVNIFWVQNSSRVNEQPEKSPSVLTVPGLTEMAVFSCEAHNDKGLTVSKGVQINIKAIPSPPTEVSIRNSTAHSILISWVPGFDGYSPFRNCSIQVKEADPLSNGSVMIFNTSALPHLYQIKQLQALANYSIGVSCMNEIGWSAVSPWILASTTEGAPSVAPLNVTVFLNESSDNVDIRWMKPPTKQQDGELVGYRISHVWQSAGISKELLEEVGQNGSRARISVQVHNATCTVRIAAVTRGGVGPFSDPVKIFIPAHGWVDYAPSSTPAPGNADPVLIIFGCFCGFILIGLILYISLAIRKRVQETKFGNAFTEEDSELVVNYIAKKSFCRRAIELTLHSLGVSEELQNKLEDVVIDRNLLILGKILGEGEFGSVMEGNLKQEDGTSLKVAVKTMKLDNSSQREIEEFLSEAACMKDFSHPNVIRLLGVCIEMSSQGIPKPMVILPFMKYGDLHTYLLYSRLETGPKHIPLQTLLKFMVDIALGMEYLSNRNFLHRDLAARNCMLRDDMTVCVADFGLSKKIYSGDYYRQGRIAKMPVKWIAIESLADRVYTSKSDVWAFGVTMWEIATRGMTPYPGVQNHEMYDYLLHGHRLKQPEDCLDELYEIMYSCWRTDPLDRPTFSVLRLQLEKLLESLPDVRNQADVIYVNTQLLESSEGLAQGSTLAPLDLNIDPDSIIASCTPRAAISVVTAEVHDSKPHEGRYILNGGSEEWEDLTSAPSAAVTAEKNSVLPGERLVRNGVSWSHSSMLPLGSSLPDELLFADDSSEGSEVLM
# ROS1, sequence (P08922 28-2347): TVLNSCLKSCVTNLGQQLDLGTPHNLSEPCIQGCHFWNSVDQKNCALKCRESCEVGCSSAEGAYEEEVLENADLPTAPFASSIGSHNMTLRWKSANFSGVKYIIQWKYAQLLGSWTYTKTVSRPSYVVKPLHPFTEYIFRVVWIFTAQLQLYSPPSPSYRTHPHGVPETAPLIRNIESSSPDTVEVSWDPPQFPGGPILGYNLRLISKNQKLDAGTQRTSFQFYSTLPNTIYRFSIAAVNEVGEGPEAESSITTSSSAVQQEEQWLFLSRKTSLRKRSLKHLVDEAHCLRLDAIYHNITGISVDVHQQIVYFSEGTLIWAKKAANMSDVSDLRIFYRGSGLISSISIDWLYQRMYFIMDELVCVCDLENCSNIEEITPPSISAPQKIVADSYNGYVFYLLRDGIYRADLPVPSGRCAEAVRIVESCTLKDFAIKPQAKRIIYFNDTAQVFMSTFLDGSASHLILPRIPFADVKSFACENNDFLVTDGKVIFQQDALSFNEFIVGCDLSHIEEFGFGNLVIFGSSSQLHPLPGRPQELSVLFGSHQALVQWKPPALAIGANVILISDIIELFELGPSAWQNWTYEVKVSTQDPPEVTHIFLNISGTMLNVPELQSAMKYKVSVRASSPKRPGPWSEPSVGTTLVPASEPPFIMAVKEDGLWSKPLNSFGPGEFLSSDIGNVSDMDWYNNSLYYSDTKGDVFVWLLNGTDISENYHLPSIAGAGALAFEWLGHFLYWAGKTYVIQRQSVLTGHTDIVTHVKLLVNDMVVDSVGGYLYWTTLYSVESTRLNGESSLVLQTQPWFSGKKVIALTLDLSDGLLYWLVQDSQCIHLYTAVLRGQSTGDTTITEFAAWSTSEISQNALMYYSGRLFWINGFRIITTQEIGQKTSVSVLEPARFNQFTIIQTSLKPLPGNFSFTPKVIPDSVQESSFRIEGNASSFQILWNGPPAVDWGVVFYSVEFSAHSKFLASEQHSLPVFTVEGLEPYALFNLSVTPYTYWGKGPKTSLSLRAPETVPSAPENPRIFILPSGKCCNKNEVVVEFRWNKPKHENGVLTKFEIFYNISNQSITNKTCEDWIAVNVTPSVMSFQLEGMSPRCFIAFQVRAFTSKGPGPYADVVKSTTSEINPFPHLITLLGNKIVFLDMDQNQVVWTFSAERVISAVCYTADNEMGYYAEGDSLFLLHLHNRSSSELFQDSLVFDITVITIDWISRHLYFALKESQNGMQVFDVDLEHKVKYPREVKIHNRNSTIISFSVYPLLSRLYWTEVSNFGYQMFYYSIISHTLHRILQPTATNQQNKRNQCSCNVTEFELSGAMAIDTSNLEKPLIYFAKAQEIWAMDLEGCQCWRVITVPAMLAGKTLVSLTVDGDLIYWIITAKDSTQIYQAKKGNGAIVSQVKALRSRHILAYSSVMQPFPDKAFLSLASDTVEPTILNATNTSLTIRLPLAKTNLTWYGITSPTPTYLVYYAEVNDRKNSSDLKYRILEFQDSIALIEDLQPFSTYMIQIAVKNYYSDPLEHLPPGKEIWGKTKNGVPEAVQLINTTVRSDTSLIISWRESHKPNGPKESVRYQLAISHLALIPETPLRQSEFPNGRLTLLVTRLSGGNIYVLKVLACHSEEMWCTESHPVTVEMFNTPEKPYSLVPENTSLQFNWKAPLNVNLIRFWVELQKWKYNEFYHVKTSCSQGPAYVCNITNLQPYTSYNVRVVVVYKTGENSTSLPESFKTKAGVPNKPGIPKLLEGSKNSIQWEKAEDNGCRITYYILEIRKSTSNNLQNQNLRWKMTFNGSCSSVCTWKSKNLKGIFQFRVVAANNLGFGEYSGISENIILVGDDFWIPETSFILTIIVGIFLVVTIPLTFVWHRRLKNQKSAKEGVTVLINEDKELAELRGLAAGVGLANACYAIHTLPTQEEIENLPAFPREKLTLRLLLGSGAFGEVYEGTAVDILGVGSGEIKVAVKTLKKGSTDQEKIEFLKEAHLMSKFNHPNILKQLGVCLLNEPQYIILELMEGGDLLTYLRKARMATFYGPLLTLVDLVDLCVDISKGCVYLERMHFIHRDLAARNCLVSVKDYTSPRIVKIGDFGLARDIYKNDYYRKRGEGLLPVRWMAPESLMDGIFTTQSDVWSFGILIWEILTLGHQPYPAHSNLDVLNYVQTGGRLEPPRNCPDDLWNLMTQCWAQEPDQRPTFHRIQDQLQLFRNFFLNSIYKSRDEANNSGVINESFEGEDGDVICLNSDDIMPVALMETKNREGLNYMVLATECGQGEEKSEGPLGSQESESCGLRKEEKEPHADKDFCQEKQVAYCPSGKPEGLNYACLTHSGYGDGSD
# NUAK1, sequence (O60285 whole entry): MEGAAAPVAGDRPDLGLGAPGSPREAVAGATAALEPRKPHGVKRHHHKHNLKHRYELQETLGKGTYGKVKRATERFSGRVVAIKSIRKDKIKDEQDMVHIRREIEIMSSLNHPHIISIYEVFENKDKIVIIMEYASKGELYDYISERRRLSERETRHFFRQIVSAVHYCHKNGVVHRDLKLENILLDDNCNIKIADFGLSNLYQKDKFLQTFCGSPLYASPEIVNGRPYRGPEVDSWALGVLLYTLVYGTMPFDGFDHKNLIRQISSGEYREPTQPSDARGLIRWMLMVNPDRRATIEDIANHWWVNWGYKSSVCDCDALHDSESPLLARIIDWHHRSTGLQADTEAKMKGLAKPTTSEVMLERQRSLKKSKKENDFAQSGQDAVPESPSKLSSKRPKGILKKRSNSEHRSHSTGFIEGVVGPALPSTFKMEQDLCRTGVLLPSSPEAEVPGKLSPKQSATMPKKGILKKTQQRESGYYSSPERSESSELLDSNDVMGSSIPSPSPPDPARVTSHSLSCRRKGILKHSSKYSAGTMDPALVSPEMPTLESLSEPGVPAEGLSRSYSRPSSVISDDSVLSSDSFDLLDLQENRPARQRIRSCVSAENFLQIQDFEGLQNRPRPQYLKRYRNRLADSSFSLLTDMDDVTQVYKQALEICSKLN
smiles,measurement,setting,value
Nc1nc(Nc2ccc3c(c2)CC[C@@H](N2CCCC2)CC3)nn1-c1cc2c(nn1)-c1ccccc1CCC2 [BGB324],protection from SARS-CoV-2-induced cytopathic effect,SARS-CoV-2 [1]; preliminary in vitro studies,protect cells from SARS-CoV-2-induced cytopathic effect
same,inhibition of SARS-CoV-2 infection of cells,SARS-CoV-2 [1]; subsequent studies,potently inhibit SARS-CoV-2 infection of cells
same,effect against lethal Ebola virus infection,Ebola virus,had effect against lethal Ebola virus infection
same,effect on ZEB1,ZEB1,downregulates ZEB1
CCOc1ccn(-c2ccc(F)cc2)c(=O)c1C(=O)Nc1ccc(Oc2ccnc(N)c2Cl)c(F)c1 [BMS-777607],concentrations effectively blocking Gas6-triggered receptor activation,AXL [2],30 to 3600 nM
same,concentrations effectively blocking Gas6-triggered receptor activation,MER [3],30 to 3600 nM
same,susceptibility of treated dendritic cells to virus infection,[4],much less susceptible to virus infection than untreated cells
"Nc1ncc(-c2cnn(C3CCNCC3)c2)cc1-c1nnc(CC2CC2)o1 [SLC-391, 3-(5-(cyclopropylmethyl)-1,3,4-oxadiazol-2-yl)-5-(1-(piperidin-4-yl)-1H-pyrazol-4-yl)pyridin-2-amine]",IC50,4T1,1050 nM
same,IC50,NUAK1,62 nM
same,IC50,Aurora C,51 nM
same,IC50,c-MET,12 nM
same,IC50,ALK1,31 nM
same,IC50,EPHA6,45 nM
same,IC50,ROS1,23 nM
same,IC50,RET,28 nM
same,IC50,MER [5],63.5 nM
same,Ames screening test result,[6],negative
same,exposure in human subjects,[7],excellent exposure
same,NOAEL at 28 day,in vivo,30 mg/kg/day
same,inhibition of SARS-CoV-2 infection (qPCR cycles),"SARS-CoV-2 [8]; 0.01 μM, for 24 hours",effectively inhibit the viral infection
same,inhibition of SARS-CoV-2 infection (qPCR cycles),"SARS-CoV-2 [8]; 1 μM, up to 72 hours",high degree of viral inhibition
same,EC50,[9],140 nM
same,Ames screening test result,[10],negative
same,"therapeutic index (TI), TC50 divided by EC50",[11],above 71.4
same,IC50,[12],290 nM
same,IC50,hERG,> 30000 nM
same,inhibition at 0.2 µM,A549 cell invasion,~75%
same,IC50,TYRO3,42.3 nM
same,viability at 0.003 µM,in vitro [13],100%
same,viability at 0.4 µM,in vitro [13],95%
same,viability at 10 µM,in vitro [13],80%
same,IC50,K562,3450 nM
same,HNSTD,"[14]; 28-day dog GLP toxicology study, as defined in ICH S9",6 mg/kg/day
same,effects on heart rate (HR),[14]; [24],no effects
same,effects on respiratory parameters,[14]; [24],no SLC-391-related effects
same,"effects on morphology of P-QRS-T complexes, PR interval, QT, QTc intervals, QRS complex duration","[14]; 28-day oral gavage, Beagle dogs, males and females",no observable effects
same,human equivalent dose (HED) of dog HNSTD,[14]; from 6 mg/kg/day in dog,3.3 mg/kg
same,tolerability in human subjects,[15],well tolerated
same,impairment of anchorage-independent cell proliferation,A549 cells,complete inhibition
same,severe toxic dose,"[16]; 28-day rat GLP study, highest dose tested",70 mg/kg/day
same,human equivalent dose (HED) of rat severe toxic dose,[16]; from 70 mg/kg/day in rat,11.3 mg/kg
same,TCID50/mL,influenza virus (Flu A); 0.003 uM,19999 TCID50/mL
same,Fold of virus reduction,influenza virus (Flu A); 0.003 uM,34.8 fold
same,TCID50/mL,influenza virus (Flu A); 0.4 uM,9290 TCID50/mL
same,Fold of virus reduction,influenza virus (Flu A); 0.4 uM,74.9 fold
same,TCID50/mL,influenza virus (Flu A); 10 uM,731 TCID50/mL
same,Fold of virus reduction,influenza virus (Flu A); 10 uM,952.9 fold
same,reduction in levels of phosphorylated Akt,phosphorylated Akt,41%
same,CC50,in vitro [17],> 10000 nM
same,Flowscreen assay classification,[18],potentially genotoxic with an aneugenic mechanism of action
same,inhibition at 0.1 µM,AXL [19],69%
same,IC50,AXL [20],9.6 nM
same,reduction of cell migration,A549,less than 40%
same,inhibition at 0.1 µM,VEGFR1,64%
same,neutralization of SARS-CoV-2 pseudovirus,[21],completely neutralize
same,inhibition at 0.1 µM,FGFR3,64%
same,"genotoxic response, rat micronucleus assay",[22],potential genotoxic response was observed
same,tumor growth inhibition (TGI),tumor growth; 50 mg/kg BID,60%
same,tumor growth inhibition (TGI),tumor growth; 75 mg/kg BID,67%
same,inhibition at 0.1 µM,MER [23],61%
